For data set [1], the system named is Angiopoietin-1 receptor (Homo sapiens), Q02763 [Y897S]. In words: Selectivity interaction (Kinase panel (Z-LYTE Assay)) EUB0001632a TEK. The note with it: at 10 µM.
The target of data set [2] is Tyrosine-protein kinase JAK1 (Homo sapiens, UniProt P23458). In words: Selectivity interaction (Kinase panel (Carna Biosciences)) EUB0001542aTs JAK1. The note with it: at 1 µM.
For data set [3], the target named is Myosin light chain kinase, smooth muscle (Homo sapiens, UniProt Q15746). The note with it: at 10 µM.
The target in a further data set is MAO-B (MAOB) (Homo sapiens, UniProt P27338). In words: Selectivity interaction (Panel of kinases, GPCRs, ion channels and transporters (enzymatic assay)) EUB0000266bCl MAOB.
In data set [4] the target is Tyrosine-protein kinase Blk (Homo sapiens) (UniProt P51451). The experiment in a line: Selectivity interaction (KinomeScan (DiscoverX)) EUB0001619a BLK. The note with it: at 1 µM.
The target of data set [5] is T1, Serine/threonine-protein kinase LATS1 (Homo sapiens) (UniProt O95835).
T1 sequence (whole entry): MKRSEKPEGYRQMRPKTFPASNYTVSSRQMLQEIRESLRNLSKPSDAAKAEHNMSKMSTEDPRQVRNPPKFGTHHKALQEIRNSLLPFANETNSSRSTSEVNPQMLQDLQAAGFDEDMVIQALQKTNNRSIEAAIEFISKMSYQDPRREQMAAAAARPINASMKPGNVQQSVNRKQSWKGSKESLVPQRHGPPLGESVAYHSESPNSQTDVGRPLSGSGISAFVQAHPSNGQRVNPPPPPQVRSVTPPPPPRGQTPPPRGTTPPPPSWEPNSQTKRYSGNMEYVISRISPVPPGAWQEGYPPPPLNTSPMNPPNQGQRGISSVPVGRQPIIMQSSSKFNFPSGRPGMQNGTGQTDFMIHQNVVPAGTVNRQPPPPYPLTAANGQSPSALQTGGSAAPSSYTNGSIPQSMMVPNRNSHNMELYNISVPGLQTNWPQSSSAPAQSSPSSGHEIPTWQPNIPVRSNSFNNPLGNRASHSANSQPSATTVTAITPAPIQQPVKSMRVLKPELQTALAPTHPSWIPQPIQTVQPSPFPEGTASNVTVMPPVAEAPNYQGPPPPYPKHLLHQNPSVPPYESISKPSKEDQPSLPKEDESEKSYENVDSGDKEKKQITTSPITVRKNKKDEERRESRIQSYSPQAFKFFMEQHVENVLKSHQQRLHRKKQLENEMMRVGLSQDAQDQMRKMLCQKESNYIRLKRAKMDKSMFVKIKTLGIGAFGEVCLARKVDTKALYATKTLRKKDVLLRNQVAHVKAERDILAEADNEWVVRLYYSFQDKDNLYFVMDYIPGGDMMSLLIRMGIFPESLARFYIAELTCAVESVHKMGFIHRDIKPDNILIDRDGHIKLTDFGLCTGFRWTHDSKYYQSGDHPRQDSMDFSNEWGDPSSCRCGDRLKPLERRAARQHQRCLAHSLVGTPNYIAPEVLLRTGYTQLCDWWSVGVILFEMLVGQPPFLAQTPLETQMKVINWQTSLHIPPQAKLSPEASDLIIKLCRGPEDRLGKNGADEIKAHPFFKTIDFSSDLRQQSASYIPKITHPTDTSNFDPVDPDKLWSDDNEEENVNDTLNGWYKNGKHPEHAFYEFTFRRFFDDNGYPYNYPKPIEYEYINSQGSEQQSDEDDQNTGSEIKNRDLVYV
The experiment in a line: Selectivity interaction (KinomeScan (DiscoverX)) EUB0001619a LATS1. The note with it: at 1 µM.

The target of data set [6] is T2, Mitogen-activated protein kinase 15 (Homo sapiens) (UniProt Q8TD08).
T2 sequence (whole entry): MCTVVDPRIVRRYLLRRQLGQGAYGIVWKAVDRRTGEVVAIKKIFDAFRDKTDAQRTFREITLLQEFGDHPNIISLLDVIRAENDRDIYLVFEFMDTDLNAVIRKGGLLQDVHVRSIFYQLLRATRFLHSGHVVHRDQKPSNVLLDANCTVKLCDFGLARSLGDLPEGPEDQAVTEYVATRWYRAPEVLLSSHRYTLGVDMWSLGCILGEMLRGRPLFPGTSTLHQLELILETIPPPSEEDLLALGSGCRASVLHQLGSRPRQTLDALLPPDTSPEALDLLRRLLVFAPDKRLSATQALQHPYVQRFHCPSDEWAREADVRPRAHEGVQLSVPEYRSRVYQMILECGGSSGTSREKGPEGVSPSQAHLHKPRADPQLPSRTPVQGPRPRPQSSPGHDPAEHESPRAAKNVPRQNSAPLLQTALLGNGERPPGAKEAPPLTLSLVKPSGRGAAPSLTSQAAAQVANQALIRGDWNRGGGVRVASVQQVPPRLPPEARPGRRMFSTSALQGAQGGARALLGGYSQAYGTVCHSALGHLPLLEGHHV
In words: Selectivity interaction (ProQinase) EUB0000171b MAPK15.

Data set [7] has as its target Casein kinase I isoform alpha (Homo sapiens, UniProt P48729). The experiment in a line: Selectivity interaction (ProQinase) EUB0000171b CSNK1A1.
Data set [8] has as its target T3, Dual specificity tyrosine-phosphorylation-regulated kinase 2 (Homo sapiens) (UniProt Q92630).
T3 sequence (whole entry): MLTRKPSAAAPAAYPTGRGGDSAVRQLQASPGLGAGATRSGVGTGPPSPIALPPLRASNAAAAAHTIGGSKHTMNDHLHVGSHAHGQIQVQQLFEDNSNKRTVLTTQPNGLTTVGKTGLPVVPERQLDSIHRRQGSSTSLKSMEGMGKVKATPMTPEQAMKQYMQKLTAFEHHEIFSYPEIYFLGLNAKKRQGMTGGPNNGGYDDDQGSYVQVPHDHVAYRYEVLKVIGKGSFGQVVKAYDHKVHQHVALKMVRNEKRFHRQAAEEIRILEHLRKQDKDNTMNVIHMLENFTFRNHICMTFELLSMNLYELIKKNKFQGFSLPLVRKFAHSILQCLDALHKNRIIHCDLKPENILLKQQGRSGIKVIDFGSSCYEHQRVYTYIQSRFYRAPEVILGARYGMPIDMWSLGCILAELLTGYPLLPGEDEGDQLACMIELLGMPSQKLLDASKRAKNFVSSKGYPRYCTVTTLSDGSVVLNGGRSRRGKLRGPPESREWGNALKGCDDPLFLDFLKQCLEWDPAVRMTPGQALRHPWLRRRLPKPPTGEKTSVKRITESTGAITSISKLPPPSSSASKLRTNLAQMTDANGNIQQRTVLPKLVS
The experiment in a line: Selectivity interaction (KinomeScan (DiscoverX)) EUB0000045b DYRK2.

The target of data set [9] is Rho-associated protein kinase 2 (Homo sapiens, UniProt O75116). In words: Selectivity interaction (KinomeScan (DiscoverX)) EUB0000618a ROCK2. The note with it: at 10 µM.
In data set [10] the target is Serine/threonine-protein kinase 32B (Homo sapiens) (UniProt Q9NY57). The experiment in a line: Selectivity interaction (KinomeScan (DiscoverX)) EUB0000595a STK32B. The note with it: at 10 µM.
In data set [11] the target is Mitogen-activated protein kinase kinase kinase 9 (Homo sapiens) (UniProt P80192). The experiment in a line: Selectivity interaction (KinomeScan (DiscoverX)) EUB0000595a MAP3K9. The note with it: at 10 µM.
Sequence of Mitogen-activated protein kinase kinase kinase 9 (Homo sapiens) (P80192 whole entry, looked up): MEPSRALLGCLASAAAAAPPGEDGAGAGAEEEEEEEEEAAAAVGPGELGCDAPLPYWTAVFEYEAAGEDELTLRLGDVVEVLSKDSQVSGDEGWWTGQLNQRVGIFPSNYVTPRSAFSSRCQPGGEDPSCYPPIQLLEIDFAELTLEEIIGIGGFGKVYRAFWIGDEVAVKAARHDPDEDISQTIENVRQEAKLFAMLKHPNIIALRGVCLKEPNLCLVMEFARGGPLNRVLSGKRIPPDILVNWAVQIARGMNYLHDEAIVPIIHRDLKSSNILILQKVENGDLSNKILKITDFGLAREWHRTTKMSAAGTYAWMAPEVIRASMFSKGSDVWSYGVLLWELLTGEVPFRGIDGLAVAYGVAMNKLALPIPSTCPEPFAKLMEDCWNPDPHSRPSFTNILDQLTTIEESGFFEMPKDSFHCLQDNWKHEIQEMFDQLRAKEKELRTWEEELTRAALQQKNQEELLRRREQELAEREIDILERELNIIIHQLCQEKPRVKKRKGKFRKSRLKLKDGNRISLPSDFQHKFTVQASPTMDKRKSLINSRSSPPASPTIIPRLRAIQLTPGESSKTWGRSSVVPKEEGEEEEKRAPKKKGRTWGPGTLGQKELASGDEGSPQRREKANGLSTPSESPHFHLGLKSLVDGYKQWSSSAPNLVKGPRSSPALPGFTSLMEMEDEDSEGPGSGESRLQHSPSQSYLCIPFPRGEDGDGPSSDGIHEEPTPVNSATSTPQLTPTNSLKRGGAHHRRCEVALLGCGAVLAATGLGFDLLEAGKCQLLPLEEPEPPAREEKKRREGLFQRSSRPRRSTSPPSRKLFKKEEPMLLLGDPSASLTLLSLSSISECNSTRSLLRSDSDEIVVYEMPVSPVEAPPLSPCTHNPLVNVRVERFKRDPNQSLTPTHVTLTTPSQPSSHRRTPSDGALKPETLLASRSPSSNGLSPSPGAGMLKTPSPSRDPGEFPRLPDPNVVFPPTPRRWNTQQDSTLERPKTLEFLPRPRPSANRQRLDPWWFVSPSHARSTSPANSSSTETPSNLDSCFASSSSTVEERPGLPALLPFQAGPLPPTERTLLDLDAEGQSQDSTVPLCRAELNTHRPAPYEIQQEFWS

Sequence of Casein kinase I isoform alpha (P48729 2-337 limits assumed): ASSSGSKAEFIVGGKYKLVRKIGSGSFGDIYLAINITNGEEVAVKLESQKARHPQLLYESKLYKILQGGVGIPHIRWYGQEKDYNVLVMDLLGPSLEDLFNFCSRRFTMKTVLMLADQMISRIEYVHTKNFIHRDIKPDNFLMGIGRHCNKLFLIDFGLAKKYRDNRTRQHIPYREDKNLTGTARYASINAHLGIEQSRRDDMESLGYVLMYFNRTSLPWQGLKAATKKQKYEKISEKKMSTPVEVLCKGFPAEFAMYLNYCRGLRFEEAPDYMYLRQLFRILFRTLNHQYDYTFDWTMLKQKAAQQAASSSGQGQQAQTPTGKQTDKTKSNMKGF
Sequence of Tyrosine-protein kinase JAK1 (P23458 whole entry): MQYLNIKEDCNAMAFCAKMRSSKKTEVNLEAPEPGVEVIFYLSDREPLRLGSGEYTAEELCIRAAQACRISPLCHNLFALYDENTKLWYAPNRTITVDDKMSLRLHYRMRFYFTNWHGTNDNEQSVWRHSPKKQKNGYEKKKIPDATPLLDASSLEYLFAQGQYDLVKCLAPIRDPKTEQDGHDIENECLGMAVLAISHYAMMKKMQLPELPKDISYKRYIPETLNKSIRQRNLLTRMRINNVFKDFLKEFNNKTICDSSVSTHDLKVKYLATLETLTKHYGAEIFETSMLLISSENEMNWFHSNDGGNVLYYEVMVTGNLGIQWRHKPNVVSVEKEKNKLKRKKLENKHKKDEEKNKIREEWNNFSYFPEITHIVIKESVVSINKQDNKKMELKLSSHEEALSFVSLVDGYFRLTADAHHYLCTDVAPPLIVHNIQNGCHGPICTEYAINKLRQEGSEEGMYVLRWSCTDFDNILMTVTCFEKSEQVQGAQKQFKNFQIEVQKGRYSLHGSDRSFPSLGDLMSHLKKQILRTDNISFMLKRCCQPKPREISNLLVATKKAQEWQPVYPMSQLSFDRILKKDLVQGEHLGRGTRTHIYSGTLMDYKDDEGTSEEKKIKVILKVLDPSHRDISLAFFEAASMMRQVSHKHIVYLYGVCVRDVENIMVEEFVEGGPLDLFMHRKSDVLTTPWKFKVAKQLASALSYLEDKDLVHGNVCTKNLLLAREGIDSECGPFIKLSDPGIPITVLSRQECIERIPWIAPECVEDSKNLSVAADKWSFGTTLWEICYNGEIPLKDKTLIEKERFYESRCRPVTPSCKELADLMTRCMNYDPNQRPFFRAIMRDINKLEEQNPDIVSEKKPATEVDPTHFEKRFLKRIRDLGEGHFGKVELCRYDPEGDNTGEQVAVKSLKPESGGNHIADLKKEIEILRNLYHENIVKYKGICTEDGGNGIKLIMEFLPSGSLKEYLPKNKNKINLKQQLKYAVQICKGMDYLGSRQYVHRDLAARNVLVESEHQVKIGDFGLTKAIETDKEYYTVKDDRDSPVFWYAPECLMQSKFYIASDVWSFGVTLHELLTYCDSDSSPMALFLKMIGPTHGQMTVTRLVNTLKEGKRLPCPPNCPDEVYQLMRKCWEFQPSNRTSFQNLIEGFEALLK
Sequence of Tyrosine-protein kinase Blk (Homo sapiens) (P51451 2-505 limits assumed): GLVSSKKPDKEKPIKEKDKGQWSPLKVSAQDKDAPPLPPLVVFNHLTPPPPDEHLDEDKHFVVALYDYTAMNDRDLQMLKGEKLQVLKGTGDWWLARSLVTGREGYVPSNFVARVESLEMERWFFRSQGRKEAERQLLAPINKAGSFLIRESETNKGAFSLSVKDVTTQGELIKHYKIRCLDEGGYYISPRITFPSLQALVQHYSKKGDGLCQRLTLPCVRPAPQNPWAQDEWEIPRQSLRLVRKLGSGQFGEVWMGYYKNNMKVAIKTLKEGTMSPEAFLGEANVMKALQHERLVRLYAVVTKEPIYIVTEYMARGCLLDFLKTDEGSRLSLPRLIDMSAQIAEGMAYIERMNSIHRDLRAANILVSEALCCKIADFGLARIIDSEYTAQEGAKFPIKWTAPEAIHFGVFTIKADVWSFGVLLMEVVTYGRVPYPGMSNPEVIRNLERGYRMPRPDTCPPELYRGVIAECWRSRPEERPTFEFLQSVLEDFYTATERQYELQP
Sequence of Rho-associated protein kinase 2 (O75116 whole entry, looked up): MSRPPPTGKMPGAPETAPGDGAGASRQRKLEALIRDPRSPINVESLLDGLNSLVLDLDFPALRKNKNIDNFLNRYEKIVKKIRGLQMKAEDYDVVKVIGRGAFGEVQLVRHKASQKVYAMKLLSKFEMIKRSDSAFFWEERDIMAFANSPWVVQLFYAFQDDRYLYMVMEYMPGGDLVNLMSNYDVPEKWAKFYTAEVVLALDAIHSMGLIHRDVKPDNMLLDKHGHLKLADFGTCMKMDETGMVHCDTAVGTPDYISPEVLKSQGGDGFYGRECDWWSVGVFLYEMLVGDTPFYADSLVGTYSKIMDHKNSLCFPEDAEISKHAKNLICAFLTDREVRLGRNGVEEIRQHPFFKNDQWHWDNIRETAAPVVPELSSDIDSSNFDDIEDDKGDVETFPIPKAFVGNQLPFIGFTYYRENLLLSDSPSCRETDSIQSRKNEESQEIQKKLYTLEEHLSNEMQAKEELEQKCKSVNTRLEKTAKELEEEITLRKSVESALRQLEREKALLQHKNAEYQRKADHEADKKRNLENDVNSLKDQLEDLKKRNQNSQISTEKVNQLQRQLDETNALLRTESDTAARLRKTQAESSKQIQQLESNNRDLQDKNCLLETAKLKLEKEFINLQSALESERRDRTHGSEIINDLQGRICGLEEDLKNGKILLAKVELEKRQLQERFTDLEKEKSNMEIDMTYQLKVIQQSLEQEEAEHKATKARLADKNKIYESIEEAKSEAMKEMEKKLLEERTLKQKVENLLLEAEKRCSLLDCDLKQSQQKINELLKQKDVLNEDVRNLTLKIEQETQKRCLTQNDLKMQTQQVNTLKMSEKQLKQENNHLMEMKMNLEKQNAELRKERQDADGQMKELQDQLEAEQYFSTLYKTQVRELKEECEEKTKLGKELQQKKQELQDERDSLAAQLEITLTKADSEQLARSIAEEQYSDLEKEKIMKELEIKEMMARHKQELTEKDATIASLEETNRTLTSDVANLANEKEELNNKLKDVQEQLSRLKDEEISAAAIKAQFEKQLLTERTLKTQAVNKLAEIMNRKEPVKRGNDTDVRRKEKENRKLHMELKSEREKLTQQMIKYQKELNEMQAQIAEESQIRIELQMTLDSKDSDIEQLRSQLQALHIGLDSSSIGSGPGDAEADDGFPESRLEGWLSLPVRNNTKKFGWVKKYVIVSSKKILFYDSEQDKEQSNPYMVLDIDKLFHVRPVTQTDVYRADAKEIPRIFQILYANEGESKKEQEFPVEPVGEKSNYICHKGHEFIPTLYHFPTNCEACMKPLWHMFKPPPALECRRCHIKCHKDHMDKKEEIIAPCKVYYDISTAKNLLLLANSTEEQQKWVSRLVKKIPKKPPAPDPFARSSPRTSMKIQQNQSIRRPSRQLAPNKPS
Sequence of Serine/threonine-protein kinase 32B (Homo sapiens) (Q9NY57 whole entry): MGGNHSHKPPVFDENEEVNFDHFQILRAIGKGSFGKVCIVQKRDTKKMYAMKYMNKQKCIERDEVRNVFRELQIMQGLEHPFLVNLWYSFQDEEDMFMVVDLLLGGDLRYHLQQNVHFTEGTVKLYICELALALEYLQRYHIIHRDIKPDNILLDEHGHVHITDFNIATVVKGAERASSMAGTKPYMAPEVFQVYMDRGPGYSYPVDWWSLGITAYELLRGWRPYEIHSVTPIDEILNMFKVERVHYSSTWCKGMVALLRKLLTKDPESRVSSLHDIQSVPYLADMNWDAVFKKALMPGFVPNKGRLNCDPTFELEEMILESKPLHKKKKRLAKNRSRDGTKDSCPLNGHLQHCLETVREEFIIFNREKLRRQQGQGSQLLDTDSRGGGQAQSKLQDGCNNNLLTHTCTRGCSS

Molecule `Cn1cc(-n2cnc3c(NCc4nc5cc(Cl)c(Cl)cc5[nH]4)nc(N4CCOCC4)nc32)cn1` displayed a % of control in data set [1] of 0.243%.

With `Cn1cc(Nc2nccc(N3CC4CCC(C3)N4C(=O)[C@@H]3CC3(F)F)n2)cn1`, the % of inhibition in data set [2] was 101%.

`Cc1cc([C@@H](C)Nc2ccccc2C(=O)O)c2nc(N3CCOCC3)cc(=O)n2c1` [AZD-6482] registered a % of control in data set [3] of 70%.

For `CCn1c(-c2nc3cc(C(=O)N4CCCC(N)C4)ccc3n2C)cc2ccccc21` (stereo not given), the XC50 on MAO-B (MAOB) is 20 µM.

Take `N#Cc1cccc(-c2c[nH]c3ncnc(N4CCOCC4)c23)c1`: the figures for the % of control in [4] and in data set [5] were 72% and 100%, respectively.

For `C=CC(=O)Nc1cccc(C(=O)Nc2ccc(Nc3cc(-c4[nH]c(SC)nc4C)ccn3)cc2)c1`, the % of control came to 66% in data set [6] (at 1 µM), 31% in [6] (at 5 µM), 70% in data set [7] (at 1 µM) and 38% in data set [7] (at 5 µM).

Consider `C=CC(=O)Nc1cc(-n2c(=O)ccc3cnc4ccc(-c5ccc(NS(C)(=O)=O)cc5)cc4c32)ccc1C`, for which the % of control in data set [8] (at 1 µM) came to 100%; in data set [8] (at 10 µM), 91%.

`O[C@H]1CC[C@H](Nc2ncc3nc(Nc4c(F)cc(F)cc4F)n([C@H]4CCOC4)c3n2)CC1` returned a % of control in data set [9] of 100%.

For the molecule `COCC(=O)NC/C=C/c1ccc2ncnc(Nc3ccc(Oc4ccc(C)nc4)c(C)c3)c2c1` [CP-724714], the % of control in data set [10] was determined as 92%; in data set [11], 74%.

Values taken from ChEMBL document CHEMBL5465560, “Selectivity Literature for EUbOPEN Chemogenomic Library” (2024).
